Entries after “also recorded” stand apart in the source; their conditions may differ.
Legend:
Assay type in all cases: cell-based, Desulfitobacterium dichloroeliminans strain DCA1
[1] = tested on: Desulfitobacterium strain DCA1; experiment: Substrate range determination: growth on and dechlorination product from chlorinated substrates
[2] = tested on: Desulfitobacterium strain DCA1; experiment: Inhibition of 1,2-DCA dechlorination / toxicity to strain DCA1
[3] = tested on: Desulfitobacterium strain DCA1; experiment: Growth of strain DCA1 on other electron acceptors; details: for growth in the presence of electron acceptor: 3mM, electron donors lactate and H2

ClCC(Cl)Cl [1,1,2-TCA, 1,1,2-trichloroethane]
growth of strain DCA1 [1]: sustained growth; also recorded: supported growth

ClCC(Cl)CCl [1,2,3-trichloropropane]
dechlorination reaction [1]: no dechlorination reaction was observed

CCC(Cl)CCl (stereo not drawn) [1,2-DCB, 1,2-dichlorobutane]
growth of strain DCA1 [1]: sustained growth

CC(Cl)CCl (stereo not drawn) [1,2-dichloropropane]
growth of strain DCA1 [1]: sustained growth

OCC(Cl)CCl (stereo not drawn) [2,3-DC-propanol]
dechlorination reaction [1]: no dechlorination reaction was observed

ClC(Cl)Cl [Chloroform, reference compound]
inhibition at 50 µM ([2]; Desulfitobacterium dichloroeliminans, DCA1, read-out: inhibition of the dechlorination of 1,2-DCA): < 50%

CC(Cl)C(C)Cl [D-2,3-DCB, D-2,3-dichlorobutane]
growth of strain DCA1 [1]: sustained growth

O=C(O)/C=C/C(=O)O [Fumarate]
conversion as electron acceptors [3]: not converted
toxicity to strain DCA1 [2]: not toxic

CC(Cl)C(C)Cl [L-2,3-DCB, L-2,3-dichlorobutane]
growth of strain DCA1 [1]: sustained growth

O=NO [NO2^-]
conversion as electron acceptors [3]: not converted
inhibition of the dechlorination ([2]; 2.5 mM): fully inhibited

O=[N+]([O-])O [NO3^-]
growth in the presence of electron acceptor [3]: grew

O=O [O2]
conversion as electron acceptors [3]: not converted

CCCI [Propyliodide, reference compound]
inhibition of the dechlorination ([2]; 50 µM, in the dark, light reversible): fully inhibited

O=S(O)(O)=S [S2O3^2-]
growth in the presence of electron acceptor [3]: grew

O=S(O)O [SO3^2-]
growth in the presence of electron acceptor [3]: grew

O=S(=O)(O)O [SO4^2-]
conversion as electron acceptors [3]: not converted

Cl[C@H]1[C@H](Cl)[C@@H](Cl)[C@@H](Cl)[C@H](Cl)[C@H]1Cl [lindane]
dechlorination reaction [1]: no dechlorination reaction was observed

C[C@H](Cl)[C@@H](C)Cl [meso-2,3-DCB, meso-2,3-dichlorobutane]
growth of strain DCA1 [1]: sustained growth

O=C(O)[C@@H](Br)[C@@H](Br)C(=O)O [meso-2,3-dibromosuccinate]
dechlorination reaction [1]: no dechlorination reaction was observed
